One data set deals with S. aureus ATCC25923. The data set can be described thus: MIC by microdilution, S. aureus ATCC25923. As to conditions: S. aureus ATCC25923 (MecA negative, wild-type), Mueller-Hinton broth, in duplicate. In kind it is cell-based, Staphylococcus aureus. The method in brief: (§1)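 Broth microdilution per CLSI (M07-A10) in Mueller-Hinton broth, run in duplicate; MIC recorded as minimal inhibitory concentration. Panel spans wild-type to multidrug-resistant strains, e.g. S. aureus ATCC700699 (MecA+, glycopeptide resistant), S. epidermidis ATCC35984 (MecA+), E. coli ATCC25922 (wild-type).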

In a further data set the test system is S. aureus ATCC29213. Nature of the data set: MIC by microdilution, S. aureus ATCC29213. In kind it is cell-based, Staphylococcus aureus. Particulars: S. aureus ATCC29213 (MecA negative, wild-type), Mueller-Hinton broth, in duplicate. The method in brief:
as §1

A further data set concerns S. aureus ATCC700699. Nature of the data set: MIC by microdilution, S. aureus ATCC700699. The format is cell-based, Staphylococcus aureus. On the set-up: unit not given here. As to conditions: S. aureus ATCC700699 (MecA positive, glycopeptide resistant), in duplicate. The method in brief:
(§2)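 MICs determined in duplicate by CLSI broth microdilution (M07-A10) in Mueller-Hinton broth. S. aureus ATCC700699: MecA positive, glycopeptide resistant; S. epidermidis ATCC35984: MecA positive; E. coli ATCC25922: wild-type. Panel spans Gram-positive and Gram-negative strains from wild-type to multi-drug resistant.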

The subject of the next data set is S. aureus ST20131365. The data set can be described thus: MIC by microdilution, S. aureus ST20131365. In kind it is cell-based, Staphylococcus aureus. As to conditions: S. aureus ST20131365 (MecA positive, glycopeptide resistant), in duplicate. The essentials: as §2
A further data set concerns S. epidermidis ATCC14990. Nature of the data set: MIC by microdilution, S. epidermidis ATCC14990. In kind it is cell-based, Staphylococcus epidermidis. As to conditions: S. epidermidis ATCC14990 (MecA negative, wild-type), in duplicate. The essentials: as §2
Another data set relates to S. epidermidis ATCC35984. Nature of the data set: MIC by microdilution, S. epidermidis ATCC35984. As to conditions: S. epidermidis ATCC35984 (MecA positive), in duplicate. In kind it is cell-based, Staphylococcus epidermidis. The method in brief: as §2
The test system of the next data set is E. faecalis JH2-2. The data set can be described thus: MIC by microdilution, E. faecalis JH2-2. As to conditions: E. faecalis JH2-2 (wild-type), in duplicate. The format is cell-based, Enterococcus faecalis. On the set-up: unit not given here. The method in brief:
as §1
On the technique in general: Broth dilution looks for growth in wells or tubes with falling amounts of substance.

Another data set has as its system E. faecalis UCN41. Nature of the data set: MIC by microdilution, E. faecalis UCN41. As to conditions: E. faecalis UCN41 (VanA positive, glycopeptide resistant), in duplicate. On the set-up: unit not given here. In kind it is cell-based, Enterococcus faecalis. The essentials: as §1
Another data set has as its system E. faecalis V583. The data set can be described thus: MIC by microdilution, E. faecalis V583. As to conditions: E. faecalis V583 (VanB positive, glycopeptide resistant), in duplicate. In kind it is cell-based, Enterococcus faecalis. The method in brief:
as §2

The test system of a further data set is E. faecium ATCC19434T. The data set can be described thus: MIC by microdilution, E. faecium ATCC19434T. The format is cell-based, Enterococcus faecium. Further details: unit not given here. As to conditions: E. faecium ATCC19434T (wild-type), in duplicate. The essentials: as §1
For a further data set, the system named is E. faecium BM4147. The data set can be described thus: MIC by microdilution, E. faecium BM4147. In kind it is cell-based, Enterococcus faecium. Further details: unit not given here. Particulars: E. faecium BM4147 (VanA positive, glycopeptide resistant), in duplicate. The method in brief:
as §1

Another data set deals with E. faecium AUS0004. Nature of the data set: MIC by microdilution, E. faecium AUS0004. The format is cell-based, Enterococcus faecium. As to conditions: E. faecium AUS0004 (VanB positive, glycopeptide resistant), in duplicate. The essentials: as §1
A further data set concerns E. coli ATCC25922. Nature of the data set: MIC by microdilution, E. coli ATCC25922. The format is cell-based, Escherichia coli. Particulars: E. coli ATCC25922 (wild-type), in duplicate. The method in brief:
as §2

Data set [1] has as its system panel of Gram-positive and Gram-negative strains. The data set can be described thus: Antibacterial profile on the selected panel of strains. In kind it is cell-based. As to conditions: for antimicrobial / antibacterial activity (in words): summary of Tables 1-12. The method in brief:
as §2

The next data set has as its system human hepatocyte. The data set can be described thus: Human hepatocyte cytotoxicity profile. The format is cell-based. As to conditions: human hepatocytes. As to the method:
FIG. 1 is a diagram representing the TMB3 human hepatocyte cytotoxicity between 7 to 25 μM (FIG. 1 A) and the ampicillin human hepatocyte cytotoxicity between 7 to 25 μM (control) (FIG. 1B. In the diagram, the abscissa represents the concentration in Log per μM and the ordinate the viability of the cells in percentage compared to the human hepatocyte culture without ampicillin trihydrate or TMB3.
The human hepatocyte cytotoxicity profile has been evaluated between 7 and 25 μM for TMB derivatives as a toxicity appeared from 25 μM for the initial hit TMB3 during a preliminary assessment.

The subject of data set [2] is S. epidermidis ST20140436. The data set can be described thus: MIC by microdilution, S. epidermidis ST20140436. The format is cell-based, Staphylococcus epidermidis. As to conditions: S. epidermidis ST20140436 (MecA positive, glycopeptide resistant), in duplicate. The essentials: as §1
Data set [3] deals with S. epidermidis ST20150446. The data set can be described thus: MIC by microdilution, S. epidermidis ST20150446. Particulars: S. epidermidis ST20150446 (MecA positive, glycopeptide resistant), in duplicate. The format is cell-based, Staphylococcus epidermidis. The method in brief: as §1
Data set [4] concerns Clostridium difficile ATCC700057. The data set can be described thus: MIC by microdilution, Clostridium difficile. As to conditions: strain ATCC70057 [sic] (Tables 1-2) / ATCC700057 (Tables 3-10), in duplicate. The format is cell-based.

Several values for one entry are separate records, joined by “and”; a condition that tells them apart may be missing. Equal entries are not always repeated.

With `CC[P+](CC)(CC)[Au-][c]1nn[nH]c1COC(=O)NC(C(=O)NC1C(=O)N2C1SC(C)(C)C2C(=O)O)c1ccccc1` (stereo not drawn) [TMB3], the “Minimal Inhibitory Concentration (MIC)” value with S. aureus ATCC25923 was 0.125 and 0.25; in the data set with S. aureus ATCC29213 it was 0.125 and 0.25; with S. aureus ATCC700699, 0.125 and 0.25; in the data set on S. aureus ST20131365, 0.125 and 0.25; in the data set on S. epidermidis ATCC14990, not above 0.06; in the data set with S. epidermidis ATCC35984, not above 0.06. Besides, the “Minimal Inhibitory Concentration (MIC)” value with E. faecalis JH2-2 was 0.5 and 1; in the data set on E. faecalis UCN41, 1 and 0.5; in the data set with E. faecalis V583, 1; with E. faecium ATCC19434T it was 1 and 0.5; with E. faecium BM4147 it was 2 and 1; in the data set with E. faecium AUS0004 it was 1. The “Minimal Inhibitory Concentration (MIC)” value in the data set on E. coli ATCC25922 is given as more than 8. Also, in data set [1] (depending on the bacteria strains), the “MICs measured, as range of concentrations” value was in the range of 0.08 to 0.63 µM. Besides, the “antimicrobial / antibacterial activity (in words)” value in [1] is “have antimicrobial activity”. For the same compound, the “concentration at which cytotoxicity appears” value in the data set with human hepatocyte (evaluated between 7 and 25 μM) came out at 20 µM. In addition, the “concentration from which toxicity appeared” value in the data set with human hepatocyte (preliminary assessment) is 25 µM.

`CC[P+](CC)(CC)[Au-][c]1nn[nH]c1CCCO` [TMB34]: the “Minimal Inhibitory Concentration (MIC)” value with S. aureus ATCC25923, in the data set on S. aureus ATCC29213, in the data set with S. aureus ATCC700699, with S. aureus ST20131365, in the data set on S. epidermidis ATCC14990 and in the data set with S. epidermidis ATCC35984 was not above 0.06 in each case. Besides, the “Minimal Inhibitory Concentration (MIC)” value in data set [2] was not above 0.06; in data set [3], not above 0.06; with E. faecalis JH2-2, 0.125; with E. faecalis UCN41, 0.125; with E. faecalis V583, 0.125; in the data set on E. faecium ATCC19434T it was 0.125. Also, the “Minimal Inhibitory Concentration (MIC)” value in the data set on E. faecium BM4147 is 0.125; with E. faecium AUS0004, 0.125; with E. coli ATCC25922 it was more than 8; in [4], not above 0.06. In addition, the “antimicrobial / antibacterial activity (in words)” value in data set [1] was “have antimicrobial activity”.

For `CC[P+](CC)(CC)[Au-][c]1nn[nH]c1CC(N)C(=O)O` (stereo not drawn) [TMB37], the “Minimal Inhibitory Concentration (MIC)” value in the data set with S. aureus ATCC25923 was 0.125; in the data set with S. aureus ATCC29213, 0.125 and 0.25; in the data set on S. aureus ATCC700699 it was 0.25; in the data set with S. aureus ST20131365, 0.25; with S. epidermidis ATCC14990, not above 0.06; in the data set with S. epidermidis ATCC35984, not above 0.06. Further, the “Minimal Inhibitory Concentration (MIC)” value in data set [2] was 0.125; in data set [3], 0.125; in the data set on E. faecalis JH2-2, 0.5; in the data set on E. faecalis UCN41 it was 0.5; in the data set on E. faecalis V583 it was 0.5; in the data set with E. faecium ATCC19434T, 0.5. Moreover, the “Minimal Inhibitory Concentration (MIC)” value with E. faecium BM4147 is 0.5; in the data set with E. faecium AUS0004, 0.5; with E. coli ATCC25922, more than 8; in data set [4] it was not above 0.06. In addition, the “antimicrobial / antibacterial activity (in words)” value in [1] is “have antimicrobial activity”.

These data come from patent US20210284668A1, “GOLD (I)-PHOSPHINE 1,2,3-TRIAZOLE DERIVATIVES WITH ANTIBIOTIC PROPERTIES” (Centre National de la Recherche Scientifique, priority 2018, published 2021).
